Test results published in article PMC4058377 (Neurochemistry international, 2014).

How the values were obtained:
WT DAT = conditions: ref Loland et al., 1999, Norregaard et al., 1998; cited from earlier work
[1] = target: T1, all the remaining mutants as well as the background construct X7C (Homo sapiens, UniProt Q01959, C135A/C306A/C319M/C342M/C581L/C90A); assay: Effect of Zn2+ on [3H]tyramine uptake; format: cell-based; conditions: 10 μM Zn^2+, 15 min prior to and during uptake
T1 sequence (Q01959 23-620 C90A/C135A/C306A/C319M/C342M/C581L): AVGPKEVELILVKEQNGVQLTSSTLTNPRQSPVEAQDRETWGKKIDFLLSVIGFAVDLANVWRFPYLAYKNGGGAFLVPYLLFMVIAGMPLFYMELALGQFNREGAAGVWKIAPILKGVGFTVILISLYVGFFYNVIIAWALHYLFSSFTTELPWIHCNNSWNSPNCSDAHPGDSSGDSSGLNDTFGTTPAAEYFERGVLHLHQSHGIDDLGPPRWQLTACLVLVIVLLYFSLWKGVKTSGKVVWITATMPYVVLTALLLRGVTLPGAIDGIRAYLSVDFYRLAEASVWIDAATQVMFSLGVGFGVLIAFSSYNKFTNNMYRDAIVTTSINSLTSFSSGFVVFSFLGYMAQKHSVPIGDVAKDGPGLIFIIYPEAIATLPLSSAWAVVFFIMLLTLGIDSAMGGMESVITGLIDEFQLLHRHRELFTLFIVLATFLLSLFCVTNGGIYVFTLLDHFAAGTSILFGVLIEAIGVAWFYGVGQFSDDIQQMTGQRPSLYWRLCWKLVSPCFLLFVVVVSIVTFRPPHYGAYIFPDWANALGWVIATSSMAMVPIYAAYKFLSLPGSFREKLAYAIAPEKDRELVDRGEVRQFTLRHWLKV

DAT Tyr335 to alanine = conditions: ref Loland et al., 2002; cited from earlier work
X7C DAT [2] = target: T2, X7C DAT (Homo sapiens, UniProt Q01959, C135A/C306A/C319M/C342M/C581L/C90A); assay: [3H]MFZ 2-12 binding, membranes
T2 sequence (Q01959 23-620 C90A/C135A/C306A/C319M/C342M/C581L): T1 sequence (Q01959 23-620 C90A/C135A/C306A/C319M/C342M/C581L)

X7C DAT [3] = target: T2, X7C DAT
[4] = substrate: NCCc1ccc(O)cc1; assay: cells, lysate or membranes; conditions: other: X7C; pH 7.4; 37.0 °C

## [Cl-].[Cl-].[Zn+2] [Zn^2+, ZnCl2]
WT DAT
  effect of Zn^2+ on dopamine uptake: inhibits
[1]
  effect of Zn^2+ on tyramine uptake: inhibited uptake
DAT Tyr335 to alanine
  effect of Zn^2+ on low uptake capacity: substantially restored

## COC(=O)[C@H]1[C@@H](c2ccc(Cl)c(Cl)c2)C[C@@H]2CC[C@H]1N2C [MFZ 2-12]
X7C DAT [2]
  MFZ 2-12 Bmax ± SEM: 5 ± 2 pmol/mg
X7C DAT [2]; read-out: MFZ 2-12 KD ± SEM
  Kd: 2.2 ± 0.5 nM

## NCCc1ccc(O)cc1 [tyramine]
X7C DAT [3]
  Vmax for tyramine uptake: 29 ±8

B1: X7C DAT (Homo sapiens; C135A/C306A/C319M/C342M/C581L/C90A) (protein)
chain: T1 sequence (Q01959 23-620 C90A/C135A/C306A/C319M/C342M/C581L)
[4]
  Km: 2.6 µM
